In test [1] the test system is mouse breast cancer FM3A cells (F28-7 strain). Kind of test: Mouse FM3A cell growth inhibition test. The test is classed as cell-based. To be noted: read-out: FM3A EC50. How it is done: An F28-7 strain, a wild cell strain derived from mouse breast cancer FM3A cells was employed. A medium was prepared by supplementing an ES medium with 2% inactivated fetal calf serum, and incubated at 37° C. under 5% CO2. Under these conditions, the doubling time of the FM3A cell was about 12 hours.
Following preincubation, the cells in logarithmic growth phase were diluted with the medium to 5×10^4 cells/ml. The sample used was one prepared for the anti-malarial activity test of the malaria protozoan. 5 to 10 μl of the samples were added to a 24-well cultivation plate (final concentration after addition of medium was 1×10^−4 to 1×10^−6). The compounds were tested in duplicates or triplicates, and wells containing 10 μl of sterilized water, DMF or DMSO were also prepared as a control. Subsequently, 990 to 995 μl of the cultured cell suspension previously prepared were added by gentle pipetting, and uniformly suspended in the medium. After incubating for 48 hours, the number of cells in each well was counted using SELF CONTROLLER (CC-108, Toa Medical Electrics) and the reproductive rate was calculated by using the following equation.
Reproductive rate (%)={([C]−[A])/([B]−[A])}×100
A: initial number of cells
B: number of control cell after 48 hours
C: number of cells after 48 hours from sample addition
The cell growth inhibition activity was calculated from the number of cells in the well containing the sample and the number of cells in the control. From the results thus obtained, the cytotoxicity of each sample was evaluated and represented as the cell growth inhibition concentration (EC50). The EC50 value is the concentration (expressed as molar concentration) of a sample necessary to inhibit the reproductive rate of the control by 50%, wherein the reproductive rate or the rate of malarial protozoan infection for the control in which samples are not added to the medium of malarial protozoan or FM3A cell, is regarded as 100%.

For test [2], the system named is P. falciparum FCR-3 strain (ATCC 30932). Kind of test: Screening of malarial protozoan growth inhibition (culture assay). The note with it: for EC50: Plasmodium falciparum, Erythrocyte, read-out: P. falciparum EC50; for Ratio of Selective Toxicity for Malarial Protozoan <chemotherapeutic coefficient>: [EC50 for mouse FM3A cell]/[EC50 for tropical fever malarial protozoan]; for malarial protozoan growth inhibiting activity (in words): summary of Table 1. Type of test: cell-based. How it is done: In this experiment, P. falciparum FCR-3 strain (ATCC 30932) was employed as the tropical fever malarial protozoan. In order to verify the effect of the commercially available anti-malarial agent chloroquin on resistant strains, a chloroquin resistant malarial protozoan of the P. falciparum K1 strain was employed. The medium used in this experiment was a filter-sterilized RPMI1640 medium which was adjusted to pH 7.4 and supplemented with 10% human serum. The malarial protozoan was cultured under 5% O2, 4% CO2 and […] at 36.5° C. The hematocrit level (% volume of erythrocyte in erythrocyte suspension) was adjusted to 5% for use. The initial infection rate with the tropical fever malarial protozoan at the beginning of the cultivation was 0.1%. The cultivation was performed using a 24-well cultivation plate, replacing the culture medium everyday, and subcultured at an infection rate of 4%. The infection rate was obtained by making a thin layer smear preparation, which was subjected to Giemsa staining or Diff-Qick staining, and observed microscopically (immersed in oil, magnified to ×1000) after which the malarial protozoan infection rate was determined using the following equation.
Malarial protozoan infection rate=[(number of infected erythrocyte)/(total number of erythrocyte)]×100 The cultured malarial protozoan-infected erythrocyte was collected by centrifugation, and washed with a serum-supplemented medium, after which a non-infected erythrocyte was added to adjust the initial infection rate to 0.3%. At this time, the hematocrit rate was 3%. The sample used in the test was obtained by dissolving in sterilized water, dimethylformamide (DMF), or dimethylsulfoxide (DMSO) to create samples of desired concentration.
5 to 10 μl of the sample were added to a 24-well cultivation plate. The samples were tested in duplicates or triplicates. As a control, 10 μl/well of sterilized water, DMF or DMSO was employed.
Subsequently, to the above medium, 990 to 995 μl of the tropical fever malarial protozoan culture medium previously prepared were added by gentle pipetting to create a uniform suspension. The culture plate was incubated for 72 hours in a CO2—O2—N2 (5%, 5%, 90%) incubator, after which thin layer smear preparations of each well was made, stained, and observed microscopically, to determine the infection rate together with the infection rate for the control.
From the malarial protozoan infection rate obtained by the method described above, the reproductive rate was calculated, whereby obtaining the 50% growth inhibition concentration (EC50) for malarial protozoan.
Reproductive rate={([b]−[a])/([c]−[a])}×100 a: initial infection rate b: infection rate with sample added c: infection rate without sample (Control)

Like-named read-outs stand apart in the source and are kept apart here.

For orientation: EC50 means the midpoint of the concentration-response curve. Regarding `O=C(C[C@H]1NCCC[C@@H]1O)Cn1cnc2ccccc2c1=O` [A, (2′R, 3′S)-febrifugine], the EC50 in test [1] (48 h) came to 800 nM. For the same compound, the EC50 in test [2] (72 h) was determined as 0.3 nM. Also, in test [2], the “Ratio of Selective Toxicity for Malarial Protozoan <chemotherapeutic coefficient>” value (“Ratio of Selective Toxicity” below) amounted to 2667 and the “malarial protozoan growth inhibiting activity (in words)” value is “selective malarial protozoan growth inhibiting activity”.
Take `O=c1c2ccccc2ncn1CC1(O)C[C@@H]2NCCC[C@@H]2O1` (stereo partly drawn) [B, (2′S, 3′S)-isofebrifugine]: the EC50 was 220 nM in test [1] (cell growth inhibition concentration (cytotoxicity), 48 hours incubation, cell count) and 0.076 nM in test [2] (50% growth inhibition concentration, infected erythrocytes, 72 hours incubation, infection rate by stained smear). In test [2], the “Ratio of Selective Toxicity” value is listed as 2895. Further, in test [2], the “malarial protozoan growth inhibiting activity (in words)” value was “selective malarial protozoan growth inhibiting activity”.
As for `O=C(C[C@@H]1NCCC[C@H]1O)Cn1cnc2ccccc2c1=O` [Formula A0, reference compound], the EC50 stood at 20000 nM in test [1] (48 h) and 190 nM in test [2] (72 h). In addition, the “Ratio of Selective Toxicity” value in test [2] was determined as 105.
Regarding `O=c1c2ccccc2ncn1CC1(O)C[C@@H]2NCCC[C@H]2O1` (some centres unmarked) [Formula B0, reference compound], the 50% effective concentration (EC50) in test [1] (48 h) came to 22000 nM; in test [2] (72 h), 200 nM. Besides, the “Ratio of Selective Toxicity” value in test [2] is on record as 110.

(Values after patent US6420372B1, “Febrifugine, isofebrifugine and method for producing the same” (Japan Science and Technology Corporation, priority 1999, dated 2002).)
